According to publication PMC12669040, “Tumour-specific STING agonist synthesis via a two-component prodrug system” (Nature Chemistry, 2025):
Values joined by “and” are separate entries in the source; they are usually repeats but may differ in a detail not shown here. Identical values can stand only once. Like-named read-outs stand apart in the source and are kept apart here.

How the values were obtained:
[1] = tested on: THP-1 Lucia ISG cells (interferon pathway); assay: Potency test of purified dimers on THP-1 Lucia ISG reporter cells; type: cell-based, human; details: for Raw readings: replicates 1-3; for fold induction at 0.000508053 µM / fold induction at 0.00152416 µM / fold induction at 0.00457247 µM / fold induction at 0.0137174 µM / fold induction at 0.0411523 µM / fold induction at 0.123457 µM / fold induction at 0.37037 µM / fold induction at 1.11111 µM / fold induction at 3.33333 µM / fold induction at 10 µM / EC50: Homo sapiens, THP1-Lucia ISG, 24 h; for fold induction at 0.000508053 µM: Concentration 0.508053 nM; for fold induction at 0.000508053 µM / fold induction at 0.00152416 µM / fold induction at 0.00457247 µM / fold induction at 0.0137174 µM / fold induction at 0.0411523 µM / fold induction at 0.123457 µM / fold induction at 0.37037 µM / fold induction at 1.11111 µM / fold induction at 3.33333 µM / fold induction at 10 µM: three replicates, read-out: Processed reporter response per replicate (reading relative to DMSO); for fold induction at 0.00152416 µM: Concentration 1.52416 nM; for fold induction at 0.00457247 µM: Concentration 4.57247 nM; for fold induction at 0.0137174 µM: Concentration 13.7174 nM; for fold induction at 0.0411523 µM: Concentration 41.1523 nM; for fold induction at 0.123457 µM: Concentration 123.457 nM; for fold induction at 0.37037 µM: Concentration 370.37 nM; for fold induction at 1.11111 µM: Concentration 1111.11 nM; for fold induction at 3.33333 µM: Concentration 3333.33 nM; for fold induction at 10 µM: Concentration 10000 nM; for EC50: three biological replicates, mean ± s.d., read-out: EC50 THP-1
Procedure: Cells were pelleted (150g, 10 min) and resuspended in the growth medium (40% conditioned) at a density of 1 × 10^6 cells ml^−1. The cell suspension was dispensed (50 µl each well) into a lidded white 96-well plate (BrandTech 781665). Test compounds or DMSO control were diluted in the growth medium and sterilized by filtering through 0.22-µm polyethersulfone (PES) membranes (Merck SLGP033RS). […] Upon cooling down to room temperature, 50 µl of reconstituted luciferase substrate (InvivoGen QUANTI-Luc) was added to each well via the injector of the plate reader (Molecular Devices SpectraMax i3x), and the luminescence output was recorded (4 s delay, 0.1 s integration). Raw signals were divided by the averaged signal of the DMSO-treated control wells and reported in relative luminescence unit (RLU). The dose–response curve of each replicate was fitted individually using the standard 4PL model (GraphPad Prism). The EC50 value of each compound was averaged from three independent experiments and reported as mean ± s.e.m.

[2] = biological target: T1, wild-type human STING LBD (hSTINGwt 138-379) (Homo sapiens, UniProt Q86WV6, H232R); assay: Isothermal titration calorimetry (ITC), reverse titration; type: binding
T1 construct: SUMO (N, cleaved yes); made in house; host or cells: Escherichia coli BL21 (DE3)
Procedure: Escherichia coli BL21 (DE3) (Thermo Scientific EC0114) was transformed with a pET28a plasmid (Genscript) harbouring the codon-optimized sequence of SUMO-hSTINGwt (aa138-379). Transformed BL21 cells were inoculated into LB medium (50 µg ml^−1 kanamycin) and incubated at 180 rpm, 37 °C overnight. The overnight culture was then diluted (1:100 dilution) in 2× YT medium (50 µg ml^−1 kanamycin) and incubated at 180 rpm, 37 °C until optical density at 600 nm (OD600) reached 0.6 (approximately 3 h). The bacterial culture was then cooled to 16 °C, induced with 0.5 mM isopropyl 1-thio-D-galactopyranoside and incubated overnight at 180 rpm, 16 °C. The bacterial cells were pelleted at 4,000g for 30 min, resuspended in 20 ml of lysis buffer (25 mM HEPES pH 7.5, 150 mM NaCl, 20 mM imidazole and 2 mM TCEP supplied with 2 tablets of cOmplete mini EDTA-free protease inhibitors) and disrupted by sonication on ice. The total lysate was clarified by centrifugation at 22,000g for 30 min. The supernatant was collected and filtered through a 0.45-µm filter (Millipore SLHAR33SS). The clarified lysate was then incubated on a roller with 10 ml bed volume of Ni-NTA resin (Thermo Scientific 88223) at 4 °C for 1 h. The Ni-NTA resin was then packed in a column, flushed with 20 ml of wash buffer (25 mM HEPES pH 7.5, 150 mM NaCl and 20 mM imidazole) and eluted with 40 ml of elution buffer (25 mM HEPES pH 8.0, 150 mM NaCl and 250 mM imidazole). The eluted protein was concentrated to approximately 5 ml (Millipore Amicon 10 kDa molecular weight cut-off (MWCO)) and buffer-exchanged into storage buffer (25 mM HEPES pH 7.5 and 150 mM NaCl). TCEP was then added to a final concentration of 2 mM, and 250 units of SUMO protease (Merck SAE0067) were added. The cleavage reaction mixture was left to stand at 4 °C overnight until LC–MS analysis indicated the completion of the cleavage reaction. The cleavage mixture was incubated with 10 ml bed volume of Ni-NTA resin on a roller at 4 °C for 1 h and packed in a disposable column. The flowthrough was collected, and the resin was further flushed with 20 ml of wash buffer. The eluted fractions were combined, concentrated and further purified by size-exclusion chromatography (Cytiva, Superdex 200 Increase 10/300 GL). The purified protein in storage buffer was concentrated to 330 µM (dimer concentration) as determined by bicinchoninic acid (BCA) assay, aliquoted, flash-frozen in liquid nitrogen and stored at −80 °C for future use.
The binding constants of purified dimers were measured by ITC (Malvern Panalytical AutoITC200) in a reverse-titration format. Stock DMSO solutions of each dimer were dissolved in titration buffer (25 mM HEPES pH 7.5 and 150 mM NaCl) to a final concentration of 25 µM and added to the titration cell. The syringe was filled with 250 µM of purified STING in a matching buffer. Titration was performed at 25 °C with the following parameters: 750 rpm stirring, 0.2 µl initial injection followed by 2-µl injections of the […] every 120 s. Titration of STING protein into blank buffer was separately performed and subtracted from the raw data before the analysis. The background-subtracted titration curves were fitted with the built-in Origin software using the standard one-site model.
Extended Data Fig. 2 Isothermal titration calorimetry (ITC) data for binding constant measurements. Purified hSTINGwt138-379 (250 μM of homodimer) was titrated into each dimer (25 μM) dissolved in a matching buffer (25 mM HEPES pH 7.5, 150 mM NaCl) at 25 °C and 750 rpm stirring. Binding constants were reported as the average from duplicate measurements.

[3] = 25 °C, average of duplicate measurements, read-out: Kd hSTINGwt (binding constant, ITC)

T1 sequence (Q86WV6 138-379 H232R): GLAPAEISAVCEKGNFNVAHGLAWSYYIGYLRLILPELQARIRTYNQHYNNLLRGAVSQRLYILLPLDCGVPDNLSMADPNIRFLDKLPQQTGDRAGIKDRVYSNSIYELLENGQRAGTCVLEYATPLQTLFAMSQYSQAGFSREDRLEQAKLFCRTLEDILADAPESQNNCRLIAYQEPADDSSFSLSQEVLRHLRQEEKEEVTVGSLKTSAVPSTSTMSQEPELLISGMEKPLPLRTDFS

Row | SMILES | Raw readings ([1]; Conc 0.508053 nM) | Raw readings ([1]; Conc 1.52416 nM) | Raw readings ([1]; Conc 4.57247 nM) | Raw readings ([1]; Conc 13.7174 nM) | Raw readings ([1]; Conc 41.1523 nM) | Raw readings ([1]; Conc 123.457 nM) | Raw readings ([1]; Conc 370.37 nM) | Raw readings ([1]; Conc 1111.11 nM) | Raw readings ([1]; Conc 3333.33 nM) | Raw readings ([1]; Conc 10000 nM) | fold induction at 0.000508053 µM [1] | fold induction at 0.00152416 µM [1] | fold induction at 0.00457247 µM [1] | fold induction at 0.0137174 µM [1] | fold induction at 0.0411523 µM [1] | fold induction at 0.123457 µM [1] | fold induction at 0.37037 µM [1] | fold induction at 1.11111 µM [1] | fold induction at 10 µM [1] | EC50 [1] [nM] | also measured
1 | COc1cc2sc(C(=O)CCC(=O)O)cc2cc1Sc1cc2cc(C(=O)CCC(=O)O)sc2cc1OC [Compound D1] | 1353 RLU and 1053 RLU and 1124 RLU | 759 RLU and 868 RLU and 713 RLU | 1002 RLU and 721 RLU and 729 RLU | 1412 RLU and 851 RLU and 1233 RLU | 3959 RLU and 4405 RLU and 4421 RLU | 44787 RLU and 77696 RLU and 48848 RLU | 107911 RLU and 161465 RLU and 94323 RLU | 125522 RLU and 220455 RLU and 140381 RLU | 142408 RLU and 266422 RLU and 170286 RLU | 176790 RLU and 287573 RLU and 159056 RLU | 1.85 | 1.04 | 1.37 | 1.93 | 5.41 | 61.3 | 148 | 172 | 242 | 291 ± 22 | fold induction at 3.33333 µM [1]: 195; Kd [2, 3]: 65 nM; Kd ([2]; ITC run _01, read-out: Kd): 80 nM; Kd ([2]; ITC run _02, read-out: Kd): 50 nM
2 | COc1cc2sc(C(=O)CCC(=O)O)cc2cc1CSc1cc2cc(C(=O)CCC(=O)O)sc2cc1OC [Compound D2] | 658 RLU and 1263 RLU and 1053 RLU | 564 RLU and 729 RLU and 601 RLU | 1074 RLU and 921 RLU and 1413 RLU | 6767 RLU and 16752 RLU and 12692 RLU | 51165 RLU and 121226 RLU and 61063 RLU | 102439 RLU and 196826 RLU and 100000 RLU | 111711 RLU and 237713 RLU and 134702 RLU | 126733 RLU and 297637 RLU and 176097 RLU | 139803 RLU and 327985 RLU and 173658 RLU | 138886 RLU and 307582 RLU and 153848 RLU | 0.9 | 0.771 | 1.47 |  |  |  | 153 | 173 |  | 74 ± 12 | fold induction at 3.33333 µM [1]: 191; Kd [2, 3]: 46 nM; Kd ([2]; ITC run _01, read-out: Kd): 79 nM; Kd ([2]; ITC run _02, read-out: Kd): 13 nM
3 | COc1cc2sc(C(=O)CCC(=O)O)cc2cc1CCCSc1cc2cc(C(=O)CCC(=O)O)sc2cc1OC [Compound D4] | 972 RLU and 1002 RLU and 881 RLU | 820 RLU and 522 RLU and 439 RLU | 921 RLU and 829 RLU and 583 RLU | 721 RLU and 644 RLU and 533 RLU | 942 RLU and 783 RLU and 992 RLU | 1083 RLU and 911 RLU and 1043 RLU | 775 RLU and 737 RLU and 829 RLU | 962 RLU and 1173 RLU and 1233 RLU | 1143 RLU and 434 RLU and 1233 RLU | 8812 RLU and 7169 RLU and 7929 RLU | 1.37 | 0.714 | 1.13 | 0.881 | 1.07 | 1.25 | 1.01 | 1.6 | 9.81 | > 10000 | 
4 | COc1cc2sc(C(=O)CCC(=O)O)cc2cc1SCCCSc1cc2cc(C(=O)CCC(=O)O)sc2cc1OC [Compound D6] | 775 RLU and 627 RLU and 744 RLU | 1043 RLU and 675 RLU and 1023 RLU | 1143 RLU and 972 RLU and 595 RLU | 992 RLU and 713 RLU and 1033 RLU | 501 RLU and 595 RLU and 1053 RLU | 890 RLU and 1002 RLU and 706 RLU | 1023 RLU and 470 RLU | 689 RLU and 699 RLU and 1023 RLU | 595 RLU and 992 RLU and 806 RLU | 722 RLU and 829 RLU and 644 RLU | 0.858 | 0.923 | 1.33 | 0.975 |  | 1.37 |  | 0.956 | 1.13 | > 10000 | 
